This is an account of results in a melting point compilation (Tetko et al.; mined from patent text by program, amines drawn as free bases though some values may be those of a salt).

A value given as a limit tells only on which side of the number the result lay.

By melting point is commonly meant the temperature, or range, at which the solid turns liquid. `CC(C)(C)OC(=O)Nc1cccc(C(=O)OCC#N)c1` came in with a melting point of 118 to 119 °C.

Consider `CNC(=O)c1cccc(NC(=O)Nc2ccccc2)c1`, for which the melting point was in the range of 209 to 210 °C.

`CC(C)(C)OC(=O)C1C(C#CC(=O)OCC(Cl)(Cl)Cl)C1(C)C` (configuration not stated) yielded a melting point of 70 to 71 °C.

Take `COCc1cc(Cl)ncn1`: the melting point is 34 to 36 °C.

`O=[N+]([O-])c1cc([N+](=O)[O-])c(Nc2nc(-c3ccc(Cl)cc3Cl)cs2)c(C(F)(F)F)c1` showed a melting point of 125 to 130 °C.

For the compound `Cc1cc(NCc2ccccc2)nc(-n2nc(C)cc2C)n1`, the melting point lay within 136 to 137 °C.

As for `CC1(C)Oc2cc(Br)sc2[C@@H](N2CCCCC2=O)[C@@H]1OCc1ccccc1` (relative stereo), the melting point was in the range of 146 to 147 °C.

Consider `CCn1nc(-c2nc(C#N)c(NCc3ccc(OC)cc3)nc2-c2ccccc2)ccc1=O`, for which the melting point was in the range of 166 to 168 °C.

In the case of `O=C(O)COc1c(Cl)cc(Cl)cc1Cl`, the melting point fell in the range of 180 to 183 °C.

`O=C1CSC(=S)N1N=c1sc2ccc(C(F)(F)F)cc2s1` came in with a melting point of 285 to 288 °C.

For the compound `COc1cc(Nc2c(C#N)cnc3cc(Oc4ccncc4)c(OC)cc23)c(Cl)cc1Cl`, the melting point lay within 267 to 269 °C.

`O=C(Cn1c(-c2ccc(Cl)cc2)nc2cccnc21)N1CCCC1` showed a melting point of 224 to 225 °C.

In the case of `COc1cccc2c(=O)[nH]c(C)nc12`, the melting point is 261 to 262 °C.

Turning to `Cc1nc(N)nc(N)c1CCCC(C)c1ccc(-c2cc(F)cc(F)c2)cc1` (configuration not stated), the melting point fell in the range of 129 to 134 °C.

The compound `COC(=O)c1cc(C)c(C(OC(=O)C(C)NS(=O)(=O)c2ccc(Cl)cc2)c2cc(-n3ccnc3)ccc2C)c(C)c1` (configuration not stated) had a melting point of 126 to 128 °C.

`Cn1cc([N+](=O)[O-])nc1C=O` returned a melting point of 129 °C.

`CCCn1c(=O)c2c(NC)n[nH]c2n(CCc2ccccc2)c1=O` showed a melting point of 256 to 258 °C.

The compound `CNc1nc(Nc2ccc(CNC(=O)OC(C)(C)C)cc2)ncc1[N+](=O)[O-]` displayed a melting point of 260 °C.

Compound `CCCCCc1c(C(C)C)nc(C(C)C)c(C(O)CCCC)c1-c1ccc(F)cc1` (configuration not stated) gave a melting point of 66 to 68 °C.

The compound `CCN(CC)CCNC(=O)c1cc(Cl)c(N)cc1OCC(=O)N1CCCC1` displayed a melting point of 160 to 162 °C.

Turning to `COc1cc(C(=O)NC2CC2)c(Cl)cc1O`, the melting point fell in the range of 214 to 216 °C.

Turning to `CCOC(=O)/C=C/c1ccc(OCOC)cc1Oc1ncc(C(F)(F)F)cc1Cl`, the melting point fell in the range of 73.5 to 74.5 °C.

Compound `FC(F)(F)COc1ccc(-c2cc(C(F)(F)F)n3ncc(-c4cccnc4)c3n2)cc1C(F)(F)F` came in with a melting point of 181 °C.

On to `CC(=O)NCC1OC(n2cc(C=CBr)c(=O)[nH]c2=O)CC1Cl` (configuration not stated), for which the melting point was 163 to 165 °C.

Compound `CC1(C(=O)O)COC2(CCCCCCC2)OC1` gave a melting point of 120 to 122 °C.

In turn, `OCC1CC(n2c(SCc3ccccc3)nc3cc(Cl)c(Cl)cc32)C(O)C1O` (configuration not stated) gave a melting point of 160 to 162 °C.

For the compound `CCCc1ccc(-c2ncc(C#N)c(Cl)n2)cc1`, the melting point was 109 to 110 °C.

Compound `Cc1[nH]c(C(=O)NC2CCN(c3cc(C(=O)O)nc4ccccc34)CC2)c(Cl)c1Cl` showed a melting point of 254 to 256 °C.

The compound `CCOC(=O)Cc1cc(C)c(C(=O)c2ccc([N+](=O)[O-])cc2)n1C` came in with a melting point of 148 to 149 °C.

The compound `O=c1ccn(-c2cccc(C(F)(F)F)c2)nc1-n1ccnc1-c1ccccc1` displayed a melting point of 204 to 205 °C.

With `Clc1ccc2c(NCCCCCCCCCNc3ncnc4cc(Cl)ccc34)ncnc2c1`, the melting point fell in the range of 159 to 162 °C.

As to `CN1C(=O)CC[C@]2(C)c3ccc(-c4ccc([N+](=O)[O-])cc4C(F)(F)F)cc3CC[C@@H]12`, the melting point was 128 to 130 °C.

Compound `CC1CC(=O)NN=C1c1ccc2c(c1)C1(CC1)C(=O)N2` (configuration not stated) registered a melting point of 291 to 293 °C.

On to `COP(=S)(OC)Oc1nsc(-c2ccccc2)c1C#N`, for which the melting point worked out at 40 °C.

`O=C(CNc1ccccc1)Nc1ccccc1C(=O)O`: the melting point lay within 192 to 193 °C.

In turn, `CSc1nc(O)cc(O)n1` showed a melting point of over 250 °C.

Compound `COC(=O)C(CCCCNC(=O)COCc1ccccc1)NC(=O)COCc1ccccc1` (configuration not stated) gave a melting point of 62 to 65 °C.

`CC(=O)c1ccc(NS(C)(=O)=O)c(Oc2ccc(F)cc2F)c1` returned a melting point of 117 to 118 °C.

`CC(=O)N(CCC1CCCCN1CCC(C(N)=O)c1ccccc1Cl)C(C)C` (configuration not stated) returned a melting point of 140 to 141 °C.

Regarding `CCCC(c1cc(C(=O)Nc2ccccc2)ccc1OCc1ccc(Br)cc1)n1ccnc1` (configuration not stated), the melting point was 159 to 166 °C.

In turn, `CO[C@]1(c2cc(F)cc(Oc3ccc(/C(C)=N/O)cc3)c2)CCO[C@@H]1C` (racemic) came in with a melting point of 126 to 127 °C.

`Cc1c(C)c(Cl)c2ccccc2c1Cl` yielded a melting point of 142 °C.

Regarding `CC1=C(C(=O)OCCC#N)C(c2cccc([N+](=O)[O-])c2)C(C(=O)OCCCN2CCC(c3ccccc3)(c3ccccc3)CC2)=C(C)N1` (configuration not stated), the melting point was in the range of 158 to 160 °C.

Compound `CCOC(=O)c1nccn1C1Cc2c(cccc2-c2ccccc2)C1=O` (configuration not stated) registered a melting point of 185 °C.

As for `COc1cc2ncnc(Nc3cc(Cl)c(O)c(Cl)c3)c2cc1OC`, the melting point was in the range of 293 to 295 °C.

In turn, `COc1ccc(C=CC(=O)N2CC(CCl)c3c2cc(N)c2ccccc32)cc1` (configuration not stated) yielded a melting point of 114 to 116 °C.

For `CCOC(=O)c1cn2c(ccc3cc(OC)ccc32)n1`, the melting point is 119 to 121 °C.

Consider `O=C(OC1CCN(Cc2ccccc2)CC1)c1ccccc1I`, for which the melting point was in the range of 73 to 74 °C.

Regarding `CCc1ncnc(NC2CCC3(CC2)OCC(c2ccccc2)O3)c1Cl` (configuration not stated), the melting point lay in the range of 105 to 106 °C.

Take `Cc1ccc(Cn2c(=O)c3c(N4CCN(C)CC4)cc(Cl)cc3n(Cc3ccccc3)c2=O)cc1C`: the melting point was 96 to 99 °C.

With `COc1cc(C(C)C)nn1C`, the melting point fell in the range of 114 to 115 °C.

`Cc1ccc(OC2CCN(CCc3c[nH]c4ccccc34)CC2)cc1` displayed a melting point of 115 to 117 °C.

On to `c1ccc(Cn2nnnc2-c2ccccc2)cc1`, for which the melting point was in the range of 54 to 67 °C.

`Cc1nc2c(N)nc3ccccc3c2n1CCCCCCS(C)(=O)=O` yielded a melting point of 202 to 206 °C.

`CC(C)NCC(O)COc1ccc(CCOC2CCCC2)cc1` (configuration not stated) had a melting point of 66 °C.

Compound `O=C(O)c1cn(-c2ccc(F)cc2)c2c(F)c(N3Cc4cccc(F)c4C3)c(F)cc2c1=O` came in with a melting point of over 300 °C.

For the compound `CCCC(=O)N1N=C(c2ccc(N)cc2)c2cc(Cl)c(Cl)cc2CC1C` (configuration not stated), the melting point lay within 193 to 194 °C.

`CCOC(=O)c1cc2cc(OCSN(C)C)ccc2oc1=O` displayed a melting point of 157 to 160 °C.

For the compound `N#Cc1ccc(COc2ccc(CC(NC(=O)c3cc4ccc(-c5ccc(Cl)cc5)cc4o3)C(=O)O)cc2)cc1` (configuration not stated), the melting point was determined as 204 °C.

Consider `Cc1ccc(-n2nc(C(C)(C)C)cc2NC(=O)Nc2ccc(OCCc3ccncc3)c3ccccc23)cn1`, for which the melting point fell in the range of 189 to 190 °C.

The compound `COCCOCCOCCOc1ccc(-c2nc(C(=O)Nc3nccs3)c(-c3ccc(Cl)cc3)[nH]2)cc1` registered a melting point of 120 to 122 °C.

`COc1cc2c(cc1OS(N)(=O)=O)CC(C)(C)N(C(=O)c1cc(OC)c(OC)c(OC)c1)C2` gave a melting point of 172 to 176 °C.

With `Cc1ccc(S(=O)(=O)NC(=O)NCCC(F)=C(F)F)cc1`, the melting point fell in the range of 134 to 136 °C.

Turning to `O=c1ccn(C2OC(C(O)CO)C(O)C2O)c(=O)[nH]1` (configuration not stated), the melting point lay in the range of 175 to 176 °C.

The compound `CCCOc1cc(-c2cc(C=CC(=O)O)ccc2O)cc2c1C(C)(C)CCC2(C)C` yielded a melting point of 114 to 116 °C.

With `CC(=O)c1c(C)[nH]c(C2CCCCC2)c1C`, the melting point lay within 186 to 188 °C.

With `Cn1nc(-c2cc(CBr)c(Cl)cc2F)c(Cl)c1C(F)(F)F`, the melting point lay within 112 to 114 °C.

Consider `O=c1ccn(-c2ccc(C(F)(F)F)cc2)nc1-c1ccnn1-c1ccccc1`, for which the melting point was in the range of 237 to 238 °C.

With `Cc1cccc(C(=O)Nc2c[nH]nc2C(=O)NCCF)n1`, the melting point was in the range of 220 to 221 °C.

In turn, `CC(CC(C(C)C(C)(C)O)N(C)C)C1CCC2C(O)CCCC12C` (configuration not stated) yielded a melting point of 180 to 181 °C.

Turning to `COc1ccc2c(c1OC)C(=O)O[C@@H]2[C@H]1c2c(c(Br)c3c(c2OC)OCO3)CCN1C`, the melting point was in the range of 169 to 170 °C.

In turn, `CCC1(C)NC(=O)c2ccccc2O1` (configuration not stated) had a melting point of 76 to 78 °C.

The compound `COc1cccc2c1C(=O)NS2(=O)=O` yielded a melting point of 224 °C.

`CCNC(=O)C1Cc2c(n(C)c3ccc(OC)cc23)C1` (configuration not stated) yielded a melting point of 162 to 163 °C.

`Cc1cc(-n2ccnc2)c2cccc(OCc3c(Cl)ccc(S(=O)(=O)N4CCC[C@H]4C(=O)N(C)CCN(C)CCCO)c3Cl)c2n1`: the melting point came out at 98 °C.

In turn, `COc1ccc(O)c2c1SC1CC3C(NC(=S)c4ccccc4)C(O)=C(C(N)=O)C(=O)C3(O)C(O)=C1C2=O` (configuration not stated) showed a melting point of 223 °C.

Regarding `Cc1c(C2=CCC(c3cccc(F)c3)(N(C)C)CC2)[nH]c2ccccc12` (configuration not stated), the melting point fell in the range of 157 to 163 °C.

Consider `CC(C)Oc1cn(-c2cccc(C(F)(F)F)c2)nc(-c2ccnn2-c2ccccc2)c1=O`, for which the melting point was 137 to 139 °C.

As to `O=C(O)c1ncn2c1[C@@H]1CCN1C(=O)c1c(Cl)cccc1-2`, the melting point was in the range of 244 to 245 °C.

Turning to `CCCC(=O)N(Cc1ccc(-c2ccccc2-c2nc(=O)o[nH]2)cc1)c1sc(C)cc1C(=O)OC`, the melting point lay in the range of 156 to 157 °C.

In turn, `CCOC(=O)[C@H](CCc1ccccc1)N[C@@H](C)C(=O)N1N=C(c2ccccc2)S[C@H]1C(=O)O` came in with a melting point of 180 to 182 °C.

As to `COC(=O)c1ccc(C2C(C(=O)c3ccc(OC)cc3)=C(O)C(=O)N2c2nnc(C)s2)cc1` (configuration not stated), the melting point was in the range of 255 to 257 °C.

`O=S1(=O)NC(C2CCCC2)Nc2ccc(S(=O)(=O)N3CCCCC3)cc21` (configuration not stated) yielded a melting point of 258 to 260 °C.

Turning to `COC(=O)c1cc(C(=O)OC)n(C(c2ccccc2)(c2ccccc2)c2ccccc2)n1`, the melting point was in the range of 212 to 214 °C.

As for `O=[N+]([O-])c1cc(F)c(N2CCSCC2)c(F)c1`, the melting point lay within 104 to 105 °C.

`OCc1cc2ccccc2c(-c2ccccc2)c1CO`: the melting point is 150 °C.

With `COCOC1=C(C(N)=O)CC(C#N)(c2ccc(OC)c(OCC3CC3)c2)CC1` (configuration not stated), the melting point was in the range of 120 to 122 °C.
